Test results published in US6924302B2, “Substituted triazole diamine derivatives as kinase inhibitors” (Ortho McNeil Pharmaceutical, Inc., priority 2000, dated 2005).
Read-outs that look alike come from different tables or passages of the source.

Columns and labels:
CDK1:Cyclin-B = biological target: T1, CDK1:Cyclin-B (Homo sapiens, UniProt P06493); test: CDK1 Screening Assay; format: biochemical
T1 construct: purchased New England Biolabs 6020; host or cells: insect cells
Outline: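 Human CDK1:cyclin-B (30 ng/well) with biotinylated histone-H1 peptide and ^33P-γ-ATP, 1 h at 30° C, 1% DMSO, on streptavidin FlashPlate; incorporation read by scintillation.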

[1] = biological target: T2, VEGF-R (vascular endothelial growth factor receptor-2) (Rattus norvegicus, UniProt O08775); test: VEGF-R Screening Assay; format: biochemical
T2 construct: polyhistidine (6xHIS) (N)

[2] = biological target: T3, MAP Kinase (ERK-2 isoform) (Rattus norvegicus, UniProt P63086); test: Kinase Selectivity Assay MAP Kinase (ERK-2); format: biochemical
T3 construct: polyhistidine (N); host or cells: E. coli
Method: (§1) Assays to test compound inhibition of other kinases were preformed using methods that measure the amount of phosphorylation of a biotinylated peptide substrate. Biotinylated peptide substrates were selected from the literature as appropriate for the enzyme being evaluated. […] Assay conditions vary slightly for each protein kinase, for example, insulin receptor kinase requires 10 mM MnCl2 for activity and Calmodulin-dependent protein kinase requires calmodulin and 10 mM CaCl2. These assay conditions are known in the art. The reaction mixture was dispensed into the wells of a streptavidin coated Flashplate and 1 μl drug stock in 100% DMSO was added to a 100 μl reaction volume resulting in a final concentration of 1% DMSO on the reaction. Enzyme was diluted in 50 mM Tris-HCl pH=8.0, 0.1% BSA and add to each well. The reaction was incubated for one hour at 30° C. in the presence of compound. After one hour the reaction mix was aspirated from the plate and the plate was washed with PBS containing 100 mM EDTA. The plate was read on a scintillation counter to determine ^33P-γ-ATP incorporated into the immobilized peptide. Test compounds were assayed in duplicate at 8 concentrations [100 uM, 10 uM, 1 uM, 100 nM, 10 nM, 1 nM, 100 pM, 10 pM]. A maximum and minimum signal for the assay was determined on each plate. The IC50 was calculated from the dose response curve of the percent inhibition of the maximum signal in the assay according to the formula [max signal—background/test compound signal—background (100)=% inhibition] by graphing the percent inhibition against the log concentration of test compound. Known inhibitor compounds appropriate for the kinase being assayed were also included on each plate.
(§2) CDK2 in complex with cyclin A is commercially available (Upstate Biotech, Lake Placid, N.Y.). The CDK4 complex was composed of a mouse CDK4 protein and a mouse Cyclin D1 protein (The mouse CDK4 protein was genetically fused to an N-terminal Flag-epitope tag and the mouse Cyclin D1 protein was fused with an N-terminal AU-1 epitope tag. The genes encoding these proteins were transferred to commercially available baculoviral vectors. The recombinant CDK4/D1 complex was then made by co-infecting commercially available insect cells with viruses carrying these two constructs). […] ERK-1 protein (Discontinued from Calbiochem). EGFR (epidermal growth factor receptor) is purified from human A431 cell membranes (Sigma, St. Louis, Mo., Cat.# E3641).

[3] = biological target: T4, Glycogen Synthase Kinase-3 (beta isoform) (Oryctolagus cuniculus, UniProt G1T8E2); test: Kinase Selectivity Assay Glycogen Synthase Kinase-3; format: biochemical, rabbit
T4 construct: purchased New England Biolabs 6040; host or cells: E. coli
Method: as §1, §2

[4] = biological target: T5, PDGF-R (platelet derived growth factor receptor) beta subunit kinase domain (Homo sapiens, UniProt P09619); test: Kinase Selectivity Assay PDGF-R; format: biochemical
T5 construct: nucleotides 1874-3507 of the human PDGF-R beta subunit kinase domain; polyhistidine (N)
Method: as §1, §2

[5] = biological target: T6, Casein Kinase 2 (alpha and beta subunits) (Homo sapiens, UniProt P68400); test: Kinase Selectivity Assay Casein Kinase 2; format: biochemical
T6 construct: purchased New England Biolabs 6010; host or cells: E. coli
Method: as §1, §2

[6] = biological target: T7, HER2 (human epidermal growth factor receptor-2) (Homo sapiens, UniProt P04626); test: Kinase Selectivity Assay HER2; format: biochemical
T7 construct: begins at amino acid 676 followed by the remainder of the HER2 cytoplasmic domain; polyhistidine (N)
Method: as §1, §2

[7] = biological target: T8, Calmodulin Kinase (calmodulin-dependent protein kinase 2) (Rattus norvegicus, UniProt P11275); test: Kinase Selectivity Assay Calmodulin Kinase; format: biochemical
T8 construct: a truncated version of the alpha subunit of the rat protein; purchased New England Biolabs 6060; host or cells: insect cells
Method: as §1, §2

Insulin Receptor Kinase = Insulin Receptor Kinase (Homo sapiens, UniProt P06213); test: Kinase Selectivity Assay Insulin Receptor Kinase; format: biochemical
Method: as §1, §2

Protein Kinase A = biological target: T9, Protein Kinase A (Bos taurus, UniProt P00517); test: Kinase Selectivity Assay Protein Kinase A; format: biochemical, bovine
T9 construct: purified from bovine heart; purchased Upstate Biotech 14-114; host or cells: bovine heart
Method: as §1, §2

[8] = biological target: T10, CDK2 in complex with cyclin A (Homo sapiens, UniProt P24941); test: Kinase Selectivity Assay CDK2; format: biochemical; details: Table 1
T10 construct: purchased Upstate Biotech
Method: as §1, §2

[9] = Kinase Selectivity, Tables 2a-2k, read-out: CDK1 IC50
[10] = Kinase Selectivity, Tables 2a-2k, read-out: VEGF-R IC50
[11] = Kinase Selectivity, Tables 2a-2k, read-out: Caseine Kinase 2 IC50
[12] = Kinase Selectivity, Tables 2a-2k, read-out: GSK-3 IC50
[13] = Kinase Selectivity, Tables 2a-2k, read-out: PDGF-R kinase IC50
[14] = Kinase Selectivity, Tables 2a-2k, read-out: HER2 Kinase IC50

T1 sequence (P06493 whole entry): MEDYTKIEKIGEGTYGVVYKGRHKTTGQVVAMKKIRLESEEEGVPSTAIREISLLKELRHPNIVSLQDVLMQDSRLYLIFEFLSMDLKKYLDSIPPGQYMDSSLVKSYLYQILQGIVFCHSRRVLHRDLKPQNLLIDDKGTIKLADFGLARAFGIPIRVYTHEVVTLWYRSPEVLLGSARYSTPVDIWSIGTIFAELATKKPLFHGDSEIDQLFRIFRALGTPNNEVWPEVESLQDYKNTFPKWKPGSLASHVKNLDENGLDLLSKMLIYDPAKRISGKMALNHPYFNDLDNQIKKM
T1 sequence (P14635 whole entry partner): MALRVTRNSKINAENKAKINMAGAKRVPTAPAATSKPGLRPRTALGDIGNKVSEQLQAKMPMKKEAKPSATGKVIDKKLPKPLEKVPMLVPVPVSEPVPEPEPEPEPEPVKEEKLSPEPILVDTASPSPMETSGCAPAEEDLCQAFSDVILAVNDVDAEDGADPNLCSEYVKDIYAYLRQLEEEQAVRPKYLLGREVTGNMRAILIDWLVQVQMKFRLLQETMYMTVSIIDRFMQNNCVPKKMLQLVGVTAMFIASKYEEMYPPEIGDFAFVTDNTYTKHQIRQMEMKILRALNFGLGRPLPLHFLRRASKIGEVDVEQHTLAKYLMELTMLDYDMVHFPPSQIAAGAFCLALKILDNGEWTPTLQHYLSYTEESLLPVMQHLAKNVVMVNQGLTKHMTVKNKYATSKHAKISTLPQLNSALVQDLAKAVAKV
T5 sequence (P09619 564-1106): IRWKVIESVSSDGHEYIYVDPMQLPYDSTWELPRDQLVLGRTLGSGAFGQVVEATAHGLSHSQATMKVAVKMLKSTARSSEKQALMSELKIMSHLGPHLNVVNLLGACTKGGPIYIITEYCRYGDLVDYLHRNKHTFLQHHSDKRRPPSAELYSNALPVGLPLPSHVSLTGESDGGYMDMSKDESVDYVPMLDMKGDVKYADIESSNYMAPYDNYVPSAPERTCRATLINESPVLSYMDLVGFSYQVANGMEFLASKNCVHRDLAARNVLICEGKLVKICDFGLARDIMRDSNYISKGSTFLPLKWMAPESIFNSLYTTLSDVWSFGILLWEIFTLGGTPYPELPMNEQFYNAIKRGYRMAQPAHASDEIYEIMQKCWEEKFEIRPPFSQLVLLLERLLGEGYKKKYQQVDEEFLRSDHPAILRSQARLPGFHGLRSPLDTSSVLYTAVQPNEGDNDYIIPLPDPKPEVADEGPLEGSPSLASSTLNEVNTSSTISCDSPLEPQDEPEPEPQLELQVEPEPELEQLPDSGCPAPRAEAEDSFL
T7 sequence (P04626 676-1255 limits assumed): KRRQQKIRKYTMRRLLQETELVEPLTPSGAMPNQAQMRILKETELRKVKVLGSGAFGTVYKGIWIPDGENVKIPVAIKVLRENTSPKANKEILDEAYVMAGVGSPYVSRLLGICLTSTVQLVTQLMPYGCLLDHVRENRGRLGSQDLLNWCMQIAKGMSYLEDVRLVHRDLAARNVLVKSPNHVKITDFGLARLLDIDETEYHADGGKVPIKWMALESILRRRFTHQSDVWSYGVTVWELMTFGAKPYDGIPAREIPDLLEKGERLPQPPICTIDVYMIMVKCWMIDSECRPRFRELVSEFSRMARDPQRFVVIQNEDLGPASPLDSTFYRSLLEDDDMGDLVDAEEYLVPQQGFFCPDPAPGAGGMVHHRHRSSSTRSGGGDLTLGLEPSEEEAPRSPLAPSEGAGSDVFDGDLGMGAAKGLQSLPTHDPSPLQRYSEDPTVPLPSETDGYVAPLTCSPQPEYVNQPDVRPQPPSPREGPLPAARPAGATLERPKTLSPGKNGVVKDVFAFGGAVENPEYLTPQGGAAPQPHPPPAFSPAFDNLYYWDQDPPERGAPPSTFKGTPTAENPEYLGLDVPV
T2 sequence (O08775 786-1343): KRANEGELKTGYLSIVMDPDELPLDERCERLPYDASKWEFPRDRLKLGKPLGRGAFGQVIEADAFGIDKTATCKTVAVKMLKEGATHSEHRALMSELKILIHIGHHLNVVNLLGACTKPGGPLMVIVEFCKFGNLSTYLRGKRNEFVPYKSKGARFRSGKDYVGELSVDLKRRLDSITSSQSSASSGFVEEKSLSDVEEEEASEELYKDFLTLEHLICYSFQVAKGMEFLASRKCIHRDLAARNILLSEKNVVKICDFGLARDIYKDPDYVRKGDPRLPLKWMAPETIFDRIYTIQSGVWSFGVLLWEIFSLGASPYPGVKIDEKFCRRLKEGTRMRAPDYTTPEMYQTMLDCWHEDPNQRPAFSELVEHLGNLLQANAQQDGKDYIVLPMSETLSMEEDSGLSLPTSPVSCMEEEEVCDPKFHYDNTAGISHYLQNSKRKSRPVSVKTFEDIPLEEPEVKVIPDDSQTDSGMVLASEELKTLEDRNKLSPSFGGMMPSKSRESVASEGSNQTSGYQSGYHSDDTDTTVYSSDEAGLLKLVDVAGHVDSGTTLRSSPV
T6 sequence (P68400 whole entry): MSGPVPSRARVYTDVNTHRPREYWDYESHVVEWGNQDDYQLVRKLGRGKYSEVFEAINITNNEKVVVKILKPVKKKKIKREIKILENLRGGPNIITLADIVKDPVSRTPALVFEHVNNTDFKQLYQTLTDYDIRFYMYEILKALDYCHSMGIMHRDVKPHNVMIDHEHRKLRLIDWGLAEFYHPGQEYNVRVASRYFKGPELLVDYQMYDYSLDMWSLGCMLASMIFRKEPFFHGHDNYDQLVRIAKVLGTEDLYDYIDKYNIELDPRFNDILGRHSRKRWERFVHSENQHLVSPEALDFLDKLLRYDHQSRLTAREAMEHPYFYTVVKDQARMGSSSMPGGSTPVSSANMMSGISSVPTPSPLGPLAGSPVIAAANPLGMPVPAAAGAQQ
T6 sequence (P67870 whole entry partner): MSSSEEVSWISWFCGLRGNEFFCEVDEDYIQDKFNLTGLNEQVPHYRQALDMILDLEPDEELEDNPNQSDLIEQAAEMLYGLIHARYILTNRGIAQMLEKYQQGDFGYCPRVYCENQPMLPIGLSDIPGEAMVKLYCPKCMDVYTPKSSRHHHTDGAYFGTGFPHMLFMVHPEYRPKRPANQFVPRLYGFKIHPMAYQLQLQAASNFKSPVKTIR
T4 sequence (G1T8E2 1-432): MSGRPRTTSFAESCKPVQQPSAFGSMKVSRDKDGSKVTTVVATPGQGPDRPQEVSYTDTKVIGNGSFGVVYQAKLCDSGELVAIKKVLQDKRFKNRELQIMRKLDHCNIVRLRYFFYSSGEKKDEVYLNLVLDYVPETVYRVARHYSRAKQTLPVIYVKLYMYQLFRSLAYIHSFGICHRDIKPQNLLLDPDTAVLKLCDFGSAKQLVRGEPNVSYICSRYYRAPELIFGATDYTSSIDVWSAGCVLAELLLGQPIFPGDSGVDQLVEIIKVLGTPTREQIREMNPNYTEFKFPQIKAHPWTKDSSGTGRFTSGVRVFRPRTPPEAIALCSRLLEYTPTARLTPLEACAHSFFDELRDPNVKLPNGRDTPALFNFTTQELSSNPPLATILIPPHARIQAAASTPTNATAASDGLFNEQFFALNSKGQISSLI
T3 sequence (P63086 whole entry, canonical isoform): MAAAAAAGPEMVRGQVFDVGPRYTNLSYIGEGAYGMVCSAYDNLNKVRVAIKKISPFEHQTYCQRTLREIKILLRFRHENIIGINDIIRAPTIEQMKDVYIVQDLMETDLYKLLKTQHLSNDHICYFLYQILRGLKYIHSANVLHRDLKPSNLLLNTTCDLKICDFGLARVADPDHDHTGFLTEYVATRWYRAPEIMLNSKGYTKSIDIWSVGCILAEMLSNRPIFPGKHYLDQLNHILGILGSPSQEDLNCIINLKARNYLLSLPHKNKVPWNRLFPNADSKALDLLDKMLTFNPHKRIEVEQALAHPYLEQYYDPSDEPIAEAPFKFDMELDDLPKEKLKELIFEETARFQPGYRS
Sequence of Insulin Receptor Kinase (P06213 980-1352): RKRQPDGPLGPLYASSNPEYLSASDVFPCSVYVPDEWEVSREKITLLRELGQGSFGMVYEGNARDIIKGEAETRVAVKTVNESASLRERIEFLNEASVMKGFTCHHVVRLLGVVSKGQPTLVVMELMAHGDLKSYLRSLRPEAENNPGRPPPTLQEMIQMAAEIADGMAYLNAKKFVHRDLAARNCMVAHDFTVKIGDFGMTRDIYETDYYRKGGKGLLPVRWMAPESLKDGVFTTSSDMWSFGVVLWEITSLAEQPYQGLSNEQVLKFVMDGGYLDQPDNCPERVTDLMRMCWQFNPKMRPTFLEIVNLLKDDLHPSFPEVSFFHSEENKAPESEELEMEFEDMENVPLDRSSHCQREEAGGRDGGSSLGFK

SMILES	IC50 (CDK1:Cyclin-B; Table 1, read-out: CDK1 IC50) [nM]	IC50 ([1]; Table 1, read-out: VEGF-R IC50) [nM]	IC50 ([6]; Table 1, read-out: HER2 IC50) [nM]	also measured
Cc1ccc(F)c(C(=O)n2nc(Nc3ccc(S(N)(=O)=O)cc3)nc2N)c1F [Cpd 2, 4-[[5-amino-1-(2,6-difluoro-3-methylbenzoyl)-1H-1,2,4-triazol-3-yl]amino]-benzenesulfonamide]	3.2	366	–	IC50 (CDK1:Cyclin-B; [9]): 3 nM; IC50 [1, 10]: 366 nM; IC50 [2]: 9480 nM; IC50 [3]: 31 nM; IC50 [4]: 10700 nM
Cc1ccsc1C(=O)n1nc(Nc2ccc(S(N)(=O)=O)cc2)nc1N [Cpd 15, 4-[[5-amino-1-[(3-methyl-2-thienyl)carbonyl]-1H-1,2,4-triazol-3-yl]amino]-benzenesulfonamide]	4.8	–	–	IC50 (CDK1:Cyclin-B; [9]): 4.8 nM; IC50 [5, 11]: > 100000 nM; IC50 [3, 12]: 1.8 nM; IC50 [4, 13]: 79 nM
Cc1cc(C)c(C(=O)n2nc(Nc3ccc(S(N)(=O)=O)cc3)nc2N)s1 [Cpd 33, 4-[[5-amino-1-[(3,5-dimethyl-2-thienyl)carbonyl]-1H-1,2,4-triazol-3-yl]amino]-benzenesulfonamide]	–	–	–	IC50 (CDK1:Cyclin-B; CDK1 IC50, Kinase Selectivity, Tables 2a-2k): 3 nM; IC50 (CDK1:Cyclin-B; CDK1 IC50, Table 1): 3.2 nM; IC50 [1]: 23.4 nM; IC50 [1, 10]: 23 nM; IC50 [6]: 5 nM; IC50 [7]: > 10000 nM; IC50 [2]: > 10000 nM; IC50 [5]: > 10000 nM; IC50 [3]: 4 nM; IC50 (Insulin Receptor Kinase): 316 nM; IC50 [4]: 39 nM; IC50 (Protein Kinase A): > 100000 nM
Nc1nc(Nc2ccc(S(N)(=O)=O)cc2)nn1C(=S)Nc1c(F)cccc1F [Cpd 66, 5-amino-3-[[4-(aminosulfonyl)phenyl]amino]-N-(2,6-difluorophenyl)-1H-1,2,4-triazole-1-carbothioamide]	0.6	–	60	IC50 (CDK1:Cyclin-B; [9]): 0.6 nM; IC50 [6, 14]: 60 nM; IC50 [5, 11]: > 100000 nM; IC50 [4, 13]: 1580 nM
Nc1nc(Nc2ccc(S(N)(=O)=O)cc2)nn1C(=O)Nc1c(F)cccc1F [Cpd 67, 5-amino-3-[[4-(aminosulfonyl)phenyl]amino]-N-(2,6-difluorophenyl)-1H-1,2,4-triazole-1-carboxamide]	3.7	38	52	IC50 [8]: 1.4 nM
CCNS(=O)(=O)c1ccc(Nc2nc(N)n(C(=O)c3c(F)cccc3F)n2)cc1 [Cpd 76, 4-[[5-amino-1-(2,6-difluorobenzoyl)-1H-1,2,4-triazol-3-yl]amino]-N-ethyl-benzenesulfonamide]	12	530	~1000	IC50 [8]: 4.4 nM
Cc1ccc(F)c(C(=O)n2nc(Nc3ccc(-n4ccnc4)cc3)nc2N)c1F [Cpd 94, 1-(2,6-difluoro-3-methylbenzoyl)-N^3-[4-(1H-imidazol-1-yl)phenyl]-1H-1,2,4-triazole-3,5-diamine]	272	409	147	–
Cc1ccc(F)c(C(=O)n2nc(Nc3ccc(-n4cncn4)cc3)nc2N)c1F [Cpd 95, 1-(2,6-difluoro-3-methylbenzoyl)-N^3-[4-(1H-1,2,4-triazol-1-yl)phenyl]-1H-1,2,4-triazole-3,5-diamine]	139	260	914	–
Nc1nc(Nc2ccc(-n3cncn3)cc2)nn1C(=O)c1c(F)cccc1F [Cpd 96, 1-(2,6-difluorobenzoyl)-N^3-[4-(1H-1,2,4-triazol-1-yl)phenyl]-1H-1,2,4-triazole-3,5-diamine]	373	817	1410	–
CCc1ccc(C(=O)n2nc(Nc3ccc(-n4cncn4)cc3)nc2N)s1 [Cpd 97, 1-[(5-ethyl-2-thienyl)carbonyl]-N^3-[4-(1H-1,2,4-triazol-1-yl)phenyl]-1H-1,2,4-triazole-3,5-diamine]	~100	~100	~10	–
Cc1cc(C)c(C(=O)n2nc(Nc3ccc(-n4cncn4)cc3)nc2N)s1 [Cpd 98, 1-[(3,5-dimethyl-2-thienyl)carbonyl]-N^3-[4-(1H-1,2,4-triazol-1-yl)phenyl]-1H-1,2,4-triazole-3,5-diamine]	> 100	~100	~100	–
Nc1nc(Nc2ccc(-n3cnnc3)cc2)nn1C(=O)c1c(F)cccc1F [Cpd 100, 1-(2,6-difluorobenzoyl)-N^3-[4-(4H-1,2,4-triazol-4-yl)phenyl]-1H-1,2,4-triazole-3,5-diamine]	340	1100	1290	–
Cc1ccc(F)c(C(=O)n2nc(Nc3ccc(-n4cnnc4)cc3)nc2N)c1F [Cpd 101, 1-(2,6-difluoro-3-methylbenzoyl)-N^3-[4-(4H-1,2,4-triazol-4-yl)phenyl]-1H-1,2,4-triazole-3,5-diamine]	143	650	819	–
Cc1ccsc1C(=O)n1nc(Nc2ccc(-n3cnnc3)cc2)nc1N [Cpd 102, 1-[(3-methyl-2-thienyl)carbonyl]-N^3-[4-(4H-1,2,4-triazol-4-yl)phenyl]-1H-1,2,4-triazole-3,5-diamine]	2350	1100	2260	–
CS(=O)(=O)Nc1ccc(Nc2nc(N)n(C(=O)c3c(F)cccc3F)n2)cc1 [Cpd 111]	150	702	16800	–
Cc1ccc(F)c(C(=O)n2nc(Nc3ccc(NS(C)(=O)=O)cc3)nc2N)c1F [Cpd 112]	87	704	16400	–
Nc1nc(Nc2cccc(Cl)c2)n(C(=O)c2c(F)cccc2F)n1 [Cpd 126, N^5-(3-chlorophenyl)-1-(2,6-difluorobenzoyl)-1H-1,2,4-triazole-3,5-diamine]	–	–	–	IC50 (CDK1:Cyclin-B; [9]): > 100000 nM; IC50 [1, 10]: > 100000 nM; IC50 [6, 14]: ~100000 nM; IC50 [3, 12]: > 100000 nM
Nc1nc(Nc2cccc(Cl)c2)n(C(=O)c2ccccc2)n1 [Cpd 127, 1-benzoyl-N^5-(3-chlorophenyl)-1H-1,2,4-triazole-3,5-diamine]	–	–	–	IC50 (CDK1:Cyclin-B; [9]): > 100000 nM; IC50 [1, 10]: > 100000 nM; IC50 [6, 14]: > 100000 nM; IC50 [3, 12]: > 100000 nM
